# Measurements as given in patent publication US9562059B2, “Anticancer maytansinoids with two fused macrocyclic rings” (priority 2013, dated 2017).
# pIC50: −log10 of the molar value. Entries after “also recorded” stand apart in the source; their conditions may differ. Where two headings read alike, the source gives them in different places.
# How the values were obtained:
# [1] = system: human oral epidermoid carcinoma KB cell line; assay: Cell culture panel bioassay, KB cell line; assay type: cell-based; conditions: read-out: IC50 KB
# From the text: (§1) Human oral epidermoid carcinoma KB cell line, human promyelocytic leukemia HL-60 cell line, human prostate carcinoma LNCaP cell line, human breast carcinoma MCF-7 cell line, human colon carcinoma Col2 cell line, and human lung carcinoma Lu1 cell line are activated from the frozen cells that are stored in Department of Medicinal Chemistry and Pharmacognosy, University of Illinois at Chicago, Chicago, Ill. Col2 cells are maintained in MEME medium. KB cells are maintained in DMEM medium. LNCaP cells are maintained in RPMI1640 medium with hormone-free 10% […] FBS (fetal bovine serum) supplemented with 0.1 nM testosterone, Lu1 cells are cultured in MEME medium. MCF-7 cells are maintained in MEME medium containing 10 mg/L of insulin. In each case, PSF (100 units/mL penicillin G, 100 μg/mL streptomycin sulfate, 250 ng/mL amphotericin B) is added. All media are supplemented with 10% heat-inactivated FBS.
# (§2) Extracts, fractions, and compounds are tested in a human oral epidermoid carcinoma (KB) cell line using established protocols. In addition, all pure compounds are evaluated against the other human cancer cell lines comprising our cytotoxicity screening panel. Cytotoxicity assays involving colon (Col-2), prostate (LNCaP), and lung (Lu1) carcinoma cell lines are performed using sulforhodamine B according to established protocols.
# [2] = system: human lung carcinoma Lu1 cell line; assay: Cell culture panel bioassay, Lu1 cell line; assay type: cell-based
# From the text: as §1, §2
# [3] = system: human colon carcinoma Col2 cell line; assay: Cell culture panel bioassay, Col2 cell line; assay type: cell-based
# From the text: as §1, §2
# [4] = system: human prostate carcinoma LNCaP cell line; assay: Cell culture panel bioassay, LNCaP cell line; assay type: cell-based; conditions: read-out: IC50 LNCaP
# From the text: as §1, §2
# [5] = system: human breast carcinoma MCF-7 cell line; assay: Cell culture panel bioassay, MCF-7 cell line; assay type: cell-based
# From the text: as §1, §2
# [6] = system: KB, Col-2, LNCaP, Lu-1, and MCF-7 cell lines; assay: In vitro anti-tumor activity against the tumor cell line panel; assay type: cell-based, human; conditions: Lu-1, MCF-7
# Description: The in vitro anti-tumor activity of isolated compounds (1-6) is evaluated against KB, Col-2, LNCaP, Lu-1, and MCF-7 cell lines. […] However, because of the much different stereochemistry, the bimacrocyclic maytansinoid may have a different anticancer therapeutic window from that of mono-macrocyclic maytansine derivatives.
# as §1, with “In each case, PSF (100 units/mL penicillin G, 100 μg/mL streptomycin sulfate, 250 ng/mL amphotericin B) is added. All media are supplemented with 10% heat-inactivated FBS.” left out
# Extracts, fractions, and compounds are tested in a human oral epidermoid carcinoma (KB) cell line using established protocols. In addition, all pure compounds are evaluated against the other human cancer cell lines comprising our cytotoxicity screening panel. […]
# Lu1 cells = assay: In vivo hollow fiber test, Lu1 cells; design: species or system mice
# Description: (§3) Hollow fiber tests are well known in the art for providing preliminary indications of therapeutic efficacy (Mi et al. (2002), J. Nat. Prod. 65: 842-850). In hollow fiber tests, human tumor cell lines currently employed in cell cultures are grown inside semipermeable hollow fibers to form heterogeneous solid tumor models. The hollow fibers containing the human tumor cells are implanted in the intraperitoneal or subcutaneous compartments of host mice, and the mice treated with the test compound of interest (Hollingshead et al, (1995), Life Sciences 57(2):131-141).
# (§4) Loeseneriellin B isolated from Loeseneriella pauciflora (Celastraceae) is tested for in vivo hollow fiber study.
# Col2 cells = assay: In vivo hollow fiber test, Col2 cells; design: species or system mice
# Description: as §3, §4
# MCF7 cells = assay: In vivo hollow fiber test, MCF7 cells; design: species or system mice
# Description: as §3, §4
# HCT116 cancer cells = assay: HCT116 xenograft mouse model, tumor growth; assay type: in vivo, nude mice; conditions: for average tumor size (L×W×W) suppressed in comparison with the control group: after 21 days
# Description: (§5) HCT116 cancer cells (2×10^7 cells in 100 μL suspension) are subcutaneously implanted in the rear flank of each mouse. After 10 days, solid tumors appear at the implanted sites. […] Daily injections at i.v. sites were scheduled for 21 days.
# (§6) FIGS. 1 to 3 show the inhibition of HCT116-tumor xenograft growth by loeseneriellin B. The treatment started on the 10th day when the tumor size reached approximately 100 mm^3 (L×W×W).
# [7] = HCT116 xenograft mouse model, body weight; assay type: in vivo, nude mice; conditions: 20 and 40 μg/kg i.v. daily for 3 weeks (FIG. 3)
# Description: as §5, §6
# [8] = cited from earlier work
# [9] = concentration required to inhibit cell growth by 50%, triplicate experiments
# [10] = concentration required to inhibit cell growth by 50%, triplicate experiments, read-out: IC50 Lu1
# [11] = concentration required to inhibit cell growth by 50%, triplicate experiments, read-out: IC50 Col2
# [12] = concentration required to inhibit cell growth by 50%, triplicate experiments, read-out: IC50 MCF-7
compound,measurement,setting,value
"COc1cc2cc(c1Cl)N1CC(C)C(C)(O)C(=O)N[C@@H](C)C(=O)O[C@@H](CC1=O)[C@]1(C)OC1[C@H](C)[C@@H]1C[C@@](O)(NC(=O)O1)[C@H](OC)/C=C/C=C(\C)C2 (stereo partly drawn) [Compound 1, Loeseneriellin B]",pIC50,"[1]; Homo sapiens, KB",9.82
same,pIC50,"[2]; Homo sapiens, Lu1, read-out: IC50 Lu1",9.15
same,pIC50,"[3]; Homo sapiens, Col2, read-out: IC50 Col2",9.70
same,pIC50,"[4]; Homo sapiens, LNCaP",9.60
same,pIC50,"[5]; Homo sapiens, MCF7, read-out: IC50 MCF-7",9.17
same,bioactivity compared with maytansine (3),[6],comparable bioactivity to that of maytansine
same,Inhibition (%),"Lu1 cells; Lu1-IP, dose 0.05 mg/kg",34.9%
same,Inhibition (%),"Lu1 cells; Lu1-IP, dose 0.1 mg/kg",20.9%
same,Inhibition (%),"Lu1 cells; Lu1-SC, dose 0.05 mg/kg",0%
same,Inhibition (%),"Lu1 cells; Lu1-SC, dose 0.1 mg/kg",0%
same,Inhibition (%),"Col2 cells; Col2-IP, dose 0.05 mg/kg, listed as Loeseneriellin B",65.5%
same,Inhibition (%),"Col2 cells; Col2-IP, dose 0.05 mg/kg, listed as loeseneriellin B",more than 65%
same,Inhibition (%),"Col2 cells; Col2-IP, dose 0.1 mg/kg",70.5%
same,Inhibition (%),"Col2 cells; Col2-SC, dose 0.05 mg/kg",0%
same,Inhibition (%),"Col2 cells; Col2-SC, dose 0.1 mg/kg",1.4%
same,Inhibition (%),"MCF7 cells; MCF7-IP, dose 0.05 mg/kg, listed as Loeseneriellin B",57.2%
same,Inhibition (%),"MCF7 cells; MCF7-IP, dose 0.05 mg/kg, listed as loeseneriellin B",more than 65%
same,Inhibition (%),"MCF7 cells; MCF7-IP, dose 0.1 mg/kg",75.5%
same,Inhibition (%),"MCF7 cells; MCF7-IP, dose 0.2 mg/kg",84.6%
same,Inhibition (%),"MCF7 cells; MCF7-SC, dose 0.05 mg/kg",0%
same,Inhibition (%),"MCF7 cells; MCF7-SC, dose 0.1 mg/kg",0%
same,Inhibition (%),"MCF7 cells; MCF7-SC, dose 0.2 mg/kg",40.1%
same,"excised tumor weights, % inhibition versus control",HCT116 cancer cells; high dose 40 μg/kg i.v. daily for 3 weeks (FIG. 2),41.7%
same,average tumor size (L×W×W) suppressed in comparison with the control group,HCT116 cancer cells; high dose 40 μg/kg i.v. daily,41.7%
same,"excised tumor weights, % inhibition versus control",HCT116 cancer cells; low dose 20 μg/kg i.v. daily for 3 weeks (FIG. 2),38.3%
same,average tumor size (L×W×W) suppressed in comparison with the control group,HCT116 cancer cells; low dose 20 μg/kg i.v. daily,38.3%
same,body weights of mice,[7],No apparent weight loss; also recorded: insignificant change in body weights
"COc1cc2cc(c1Cl)N(C)C(=O)C[C@H](OC(=O)[C@H](C)N(C)C(C)=O)[C@]1(C)O[C@H]1[C@H](C)[C@@H]1C[C@@](O)(NC(=O)O1)[C@H](OC)/C=C/C=C(\C)C2 [Compound 3, Maytansine]",pIC50,[1]; [9],9.77
same,pIC50,[2]; [10],9.11
same,pIC50,[3]; [11],9.72
same,pIC50,[4]; [9],9.49
same,pIC50,[5]; [12],9.16
same,systemic toxicity in human clinical trials,[8],unacceptable systemic toxicity
"CCC(=O)N(C)[C@@H](C)C(=O)O[C@H]1CC(=O)N(C)c2cc(cc(OC)c2Cl)C/C(C)=C/C=C[C@@H](OC)[C@@]2(O)C[C@H](OC(=O)N2)[C@@H](C)[C@@H]2O[C@@]12C [Compound 4, Maytanprine]",pIC50,[1]; [9],10.21
same,pIC50,[2]; [10],9.46
same,pIC50,[3]; [11],9.80
same,pIC50,[4]; [9],9.80
same,pIC50,[5]; [12],9.77
"COc1cc2cc(c1Cl)N(C)C(=O)C[C@H](OC(=O)C(C)N(C)C(=O)C(C)C)[C@]1(C)O[C@H]1[C@H](C)[C@@H]1C[C@@](O)(NC(=O)O1)[C@H](OC)/C=C/C=C(\C)C2 (stereo partly drawn) [Compound 5, Maytanbutine]",pIC50,[1]; [9],10.30
same,pIC50,[2]; [10],9.89
same,pIC50,[3]; [11],10.21
same,pIC50,[4]; [9],10.27
same,pIC50,[5]; [12],9.89
"COc1cc2cc(c1Cl)N(C)C(=O)CC(OC(=O)C(C)N(C)C(=O)CC(C)C)C1(C)OC1C(C)C1CC(O)(NC(=O)O1)C(OC)/C=C/C=C(\C)C2 (stereo not drawn) [Compound 6, Maytanvaline]",pIC50,[1]; [9],9.96
same,pIC50,[2]; [10],9.16
same,pIC50,[3]; [11],9.82
same,pIC50,[4]; [9],9.80
same,pIC50,[5]; [12],9.57
